Assays:
thyroid hormone activity = settings: background statement; cited from earlier work
psoriatic plaques [1] = assay: Additional embodiment: topical T3A or D-T4 with or without T4A on psoriatic plaques, 35 days; assay type: in vivo, human; settings: for effect on psoriatic rash (conclusions, in words): topically administered
Description: Simultaneous topical treatment of four untreated, typically scaling and demarcated dermatitic plaques (plaques 1-4) in a psoriatic patient was undertaken. Plaque 5 was left untreated for comparison.
The areas of the plaques at initiation of the treatment were as follows: plaque 1: 5.3 cm^2, plaque 2: 4.9 cm^2, plaque 3: 6.4 cm^2, plaque 4: 5.3 cm^2; plaque 5: 5.6 cm^2.
Triacana® cream containing 200 μg 3,5,3′-triiodothyroacetic acid, T3A, (triac, tiratricol) per gram.
Triacana® cream plus Locobase® unctuous cream containing 500 μg 3,3′,5,5′-tetraiodothyroacetic acid, T4A, per gram (University Pharmacy, Helsinki, Finland. Ex tempore-preparation).
Locobase® unctuous cream containing 2500 μg D-thyroxine, D-T4, per gram (University Pharmacy, Helsinki, Finland. Ex tempore-preparation).
Locobase® unctuous cream containing 2500 μg D-thyroxine, D-T4, per gram (University Pharmacy, Helsinki, Finland. Ex tempore-preparation) plus Locobase® unctuous cream containing 500 μg 3,3′,5,5′-tetraiodothyroacetic acid, T4A, per gram (University Pharmacy, Helsinki, Finland. Ex tempore-preparation).
Triacana® cream was applied to plaques 1 and 2 at 125 mg/cm^2 twice in 24 hours, corresponding to 50 μg 3,5,3′-triiodothyroacetic acid per cm^2 per 24 hours.
T4A-ointment was applied to plaque 2 concurrently with Triacana® cream at 50 mg/cm^2 twice in 24 hours, corresponding to 50 μg 3,3′,5,5′-tetraiodothyroacetic acid per cm^2 per 24 hours.
D-T4-ointment was applied to plaques 3 and 4 at 50 mg/cm^2 twice in 24 hours, corresponding to 250 μg D-T4, per cm^2 per 24 hours.
T4A-ointment was applied to plaque 4 concurrently with the D-T4-ointment at 50 mg/cm^2 twice in 24 hours corresponding to 50 μg/cm^2 3,3′,5,5′-tetraiodothyroacetic acid per cm^2 per 24 hours.
Treatment was continued in this manner for 35 days.

psoriatic plaques [2] = assay: Continuation of the therapeutic trial from 35 days onward (to 70 days); assay type: in vivo, human; settings: for change (reduction) in plaque area: from day 35: plaque 2 (earlier Daivonex) no treatment, plaque 3 (earlier T4A) Locobase, plaque 4 (earlier T4A+T4) T4 ointment 5 μg/cm^2/24 h; for effect on psoriatic rash (in words): topically applied
Description: The therapeutic trial was continued from 35 days onward as follows:
Locobase® ointment containing […], T4, per gram (University Pharmacy, Helsinki, Finland).
As previously, the ointments were applied to the target plaques at 50 mg/cm^2 twice in 24 hours. Thus, the dose of T4 to plaque 4 was 5 μg T4 per cm^2 per 24 hours.

psoriatic plaques [3] = assay: Topical treatment of psoriatic plaques in a psoriatic patient, 35 days; assay type: in vivo, human; settings: for change (reduction) in plaque area: ointment 50 mg/cm^2 twice in 24 hours
Text: Simultaneous topical treatment of four untreated, typically scaling and sharply demarcated dermatitic plaques ([…]) in a psoriatic patient was undertaken. Plaque 5 was left untreated for comparison.
The areas of the plaques at initiation of the treatment were as follows: plaque 1: 8.7 cm^2; plaque 2: 8.1 cm^2; plaque 3: 6.8 cm^2; plaque 4: 6.1 cm^2; plaque 5: 6.4 cm^2.
The following ointments were applied to plaques 1-4:
Locobase.RTM. unctuous cream (Yamanouchi Europe B. V., Leiderup, Holland).
Daivonex.RTM. calcipotriol ointment containing 50µg calcipotriol per gram (L.o slashed.vens Kemiske Fabrik, Ballerup, Denmark).
Locobase.RTM.D unctuous cream containing 500µg 3,3′,5,5′-tetraiodothyroacetic acid, T4A, per gram (University Pharmacy, Helsinki, Finland).
Locobase.RTM. unctuous cream containing 500 μg T4A per gram and […], T4, per gram (University Pharmacy, Helsinki, Finland).
Each ointment was applied to the plaques at 50 mg/cm^2 twice in 24 hours, corresponding to 5µg calcipotriol per cm^2 per 24 hours for plaque 2, 50 μg T4A per cm^2 per 24 hours for plaques 3 and 4, and 5 μg T4 per cm^2 per 24 hours for plaque 4. Treatment was continued in this manner for 35 days.
The results are presented in Table 1 below, showing the change (reduction) in plaque area with time (days).

psoriatic plaque = assay: Topical T4P ointment on a previously untreated psoriatic plaque; assay type: in vivo, human; settings: T4P 25 μg/cm^2 twice per 24 hours for 35 days; follow-up 42 days
Description: The topical effect of T4P, 3,3′,5,5′-tetraiodothyropropionic acid ointment on a previously untreated psoriatic plaque, on psoriasis was studied in a therapeutic design identical with the above. The dosage of T4P was 25 μg/cm^2 twice per 24 hours for 35 days. The follow-up period was 42 days. […] Effect of 3,3′,5,5′-tetraiodothyropropionic acid (T4P) ointment on a previously untreated psoriatic plaque. The dosage of T4P was 25 μg/cm^2 twice per 24 hours for 35 days. The follow-up period was 42 days.

psoriasis = settings: topical calcipotriol therapy; cited from earlier work

## N[C@H](Cc1cc(I)c(Oc2cc(I)c(O)c(I)c2)c(I)c1)C(=O)O [D-T4, D-thyroxine]
Thyroid hormone activity
  thyroid hormone activity relative to T4: substantially less thyroid hormone activity than T4
Psoriatic plaques [1]; 35 days, T3A 50 μg/cm^2/24 h or D-T4 250 μg/cm^2/24 h alone
  changes in the area or appearance of the plaque during the whole treatment period: no visible changes
Psoriatic plaques [1]
  effect on psoriatic rash (conclusions, in words): did not have any visible effect

## N[C@@H](Cc1cc(I)c(Oc2ccc(O)c(I)c2)c(I)c1)C(=O)O [T3, 3,3′,5-triiodo-L-thyronine, reference compound]
Thyroid hormone activity
  thyroid hormone activity relative to T4: five times that of T4

## O=C(O)Cc1cc(I)c(Oc2ccc(O)c(I)c2)c(I)c1 [T3A, 3,5,3′-triiodothyroacetic acid]
Psoriatic plaques [1]
  effect on psoriatic rash (conclusions, in words): did not have any visible effect

## N[C@@H](Cc1cc(I)c(Oc2cc(I)c(O)c(I)c2)c(I)c1)C(=O)O [T4, 3,3′,5,5′-tetraiodo-L-thyronine, reference compound]
Psoriatic plaques [2]; 42 days
  change (reduction) in plaque area: 70%
Psoriatic plaques [2]; 50 days
  change (reduction) in plaque area: 25%
Psoriatic plaques [2]; 62 days
  change (reduction) in plaque area: -10%
Psoriatic plaques [2]; 70 days
  change (reduction) in plaque area: −50% ^
Psoriatic plaques [2]; T4 ointment 5 μg/cm^2/24 h from day 35 to day 70, plaque previously treated with T4A+T4
  increase of the area of plaque 4 compared with baseline: 50%
Psoriatic plaques [2]
  effect on psoriatic rash (in words): worsened

## O=C(O)Cc1cc(I)c(Oc2cc(I)c(O)c(I)c2)c(I)c1 [T4A, 3,3′,5,5′-tetraiodothyroacetic acid]
Thyroid hormone activity
  thyroid hormone activity relative to T4: about one-fourth
Psoriatic plaques [1]
  effect on psoriatic rash (conclusions, in words): separate and prominent antipsoriatic effect
Psoriatic plaques [2]; 42 days
  change (reduction) in plaque area: 95%
Psoriatic plaques [2]; 50 days
  change (reduction) in plaque area: 95%
Psoriatic plaques [2]; 62 days
  change (reduction) in plaque area: 90%
Psoriatic plaques [2]; 70 days
  change (reduction) in plaque area: 80%
Psoriatic plaques [2]; topical T4A 50 μg/cm^2/24 h with T4 5 μg/cm^2/24 h
  inhibition of the rash-worsening effect of T4: completely inhibits this effect
Psoriatic plaques [2]
  effect on psoriatic rash (in words): therapeutically efficacious
Psoriatic plaques [3]; 14 days
  change (reduction) in plaque area: 45%
Psoriatic plaques [3]; 21 days
  change (reduction) in plaque area: 65%
Psoriatic plaques [3]; 28 days
  change (reduction) in plaque area: 85%
Psoriatic plaques [3]; 35 days topical treatment
  effect on psoriatic plaques (in words): clear effect
  therapeutic efficacy in terms of reduction in plaque area, compared with calcipotriol ointment: better than that of the calcipotriol ointment
Psoriatic plaques [3]; 35 days
  change (reduction) in plaque area: 90%

## O=C(O)CCc1cc(I)c(Oc2cc(I)c(O)c(I)c2)c(I)c1 [T4P, 3,3′,5,5′-tetraiodothyropropionic acid]
Thyroid hormone activity
  thyroid hormone activity relative to T4: about one-fourth
Psoriatic plaque
  inhibition of the effects of T4: completely inhibit the effects of T4
  therapeutic efficacy compared with T4A: equal to T4A in therapeutic efficacy

## C=C1/C(=C\C=C2/CCC[C@]3(C)[C@@H]([C@H](C)/C=C/[C@@H](O)C4CC4)CC[C@@H]23)C[C@@H](O)C[C@@H]1O [calcipotriol]
psoriasis
  complete removal of dermatitic plaques, share of cases: about 15%

Reference: patent US20050272817A1, “Dermatological use and a dermatological preparation” (priority 2000, published 2005)
